Values quoted from earlier work in US10981914B2, “Toll-like receptor 7 (TLR7) agonists having a tricyclic moiety, conjugates thereof, and methods and uses therefor” (BRISTOL-MYERS SQUIBB COMPANY, priority 2017, dated 2021).

System: IFN-α
Conditions: as measured by IFN-α induction

SMILES: CCCCOc1nc(N)c2c(n1)N(Cc1cccc(CN3CCCC3)c1)CC(=O)N2 [Vesatolimod, vesatolimod]
- potency, fold less than that of the corresponding purine-8-one compound: 100 ×
